How the values were obtained:
wt PKAcα [1] = target: T1, wt PKAcα (Homo sapiens, UniProt P17612); conditions: 20 mM MOPS pH 7.0, 150 mM NaCl; ATP 0-0.75 mM
wt PKAcα [2] = target: T1, wt PKAcα; conditions: 1 mM ATP, 10 mM MgCl2, 20 mM MOPS pH 7.0, 150 mM NaCl, 0.5 °C/min

Q: How did the dissociation constant (wt PKAcα [1]) turn out when Nc1ncnc2c1ncn2[C@@H]1O[C@H](COP(=O)(O)OP(=O)(O)OP(=O)(O)O)[C@@H](O)[C@H]1O [ATP] was run?
A: ATP dissociation constants were determined using the ThermoFluor assay.

Q: And the thermal shift (wt PKAcα [2])?
A: stabilities of apo PKAcα or J-PKAcα subunits and its ATP and/or peptide binding forms

Reference: paper PMC6506387 (Structure (London, England : 1993), 2019)
